Assay results taken from paper PMC3230693 (Nature structural & molecular biology, 2011).
Each block holds one compound with its values, some of them ahead of it.

Legend:
L858R tEGFR = L858R tEGFR (Homo sapiens, UniProt P00533, L858R)
[1] = target: WT tEGFR (human EGFR aa 25–1022) (Homo sapiens, UniProt P00533); assay: Radiometric kinase inhibition assay, WT tEGFR; assay type: biochemical
Δ746–750 tEGFR = Δ746–750 tEGFR (Homo sapiens, UniProt P00533, DEL746-750)
EGFR catalytic domain = conditions: cited from earlier work
HEK293 GnTi− cells = assay: Expression of mutant tEGFRs in transfected cells; assay type: cell-based, human; conditions: 50 nM in culture medium; western blot
[2] = target: Δ(746–750) I706Q tEGFR (human)
[3] = target: L858R I706Q tEGFR (human)

Compound: Segment 1 of MIG6: MIG6 segment 1 (30mer, residues 334–364) peptide made by solid-phase peptide synthesis (SPKSLPSYLNGVMPPTQSFAPDPKYVSSKAL)
inhibition by MIG6 segment 1 (L858R tEGFR; L858R tEGFR–EGF, up to 100 µM): essentially resistant to inhibition | IC50 ([1]; EGF–bound WT tEGFR, phosphorylation of biotinylated substrate peptide): 100 µM | inhibition by MIG6 segment 1 (Δ746–750 tEGFR; Δ(746–750) tEGFR–EGF, up to 100 µM): essentially resistant to inhibition | affinity, fold weaker relative to segment 1+2 (EGFR catalytic domain): ~ 100 fold

Compound: C#Cc1cccc(Nc2ncnc3cc(OCCOC)c(OCCOC)cc23)c1 [erlotinib]
expression of L858R and Δ746–750 tEGFRs (HEK293 GnTi− cells): enhanced expression

Compound: Nc1ncnc2c1ncn2[C@@H]1O[C@H](COP(=O)(O)OP(=O)(O)NP(=O)(O)O)[C@@H](O)[C@H]1O [AMP-PNP]
IC50 (L858R tEGFR; L858R tEGFR–EGF, 10 µM ATP, range stated for WT and mutant tEGFRs): 80 to 200 µM | Ki fold higher compared with WT (L858R tEGFR; L858R vs WT tEGFR, range stated for both mutants): 5–8 fold | IC50 ([1]; WT tEGFR–EGF, 10 µM ATP, range stated for WT and mutant tEGFRs): 80 to 200 µM | Ki ([1]; read-out: Ki (deduced from IC50, ATP concentration and ATP Kmapp), WT tEGFR–EGF): 21 ± 5 µM | Ki fold higher compared with WT (Δ746–750 tEGFR; Δ746–750 vs WT tEGFR, range stated for both mutants): 5–8 fold | IC50 (Δ746–750 tEGFR; Δ(746–750) tEGFR–EGF, 10 µM ATP, range stated for WT and mutant tEGFRs): 80 to 200 µM

Other lines, results leading:

kinase rate of the EGF–bound form, against Δ746–750 tEGFR [2]: 5 fold lower
Compound: Δ(746–750) I706Q tEGFR (receptor)

kinase rate in the presence of EGF, against the single mutant L858R tEGFR [3]: 30 fold lower
Compound: L858R I706Q tEGFR (receptor)
